Assays:
[1] = test system: HIV-1 variants containing I50V; details: in vitro; cited from earlier work
[2] = test system: clinical isolates containing an I50L substitution (and their baseline isolates); test: PhenoSense phenotypic susceptibility of clinical isolates from ATV-treated patients who developed I50L; assay type: cell-based, HIV-1; details: for Subceptibility, Fold Change in EC50 relative to reference strain: Subject 169, Week 114; for median increase in susceptibility from baseline: on emergence of I50L, n=4 to 15; for percentage of I50L isolates with susceptibility (FC) 0.4-fold or lower: relative to the reference strain
From the text: Study Population. Viral samples (baseline and on-treatment, where available) were obtained from patients who experienced virologic failure while enrolled in studies AI424-007/041 [12] (ATV+d4T and ddI), AI424-008/044 [13, 14] (ATV+d4T and 3TC) and AI424-034 [9] (ATV or EFV in combination with ZDV and 3TC). […] In general, virologic failure specimens were selected for further resistance evaluation only if they contained >1,000 copies/mL HIV-1 RNA and there was no indication that the specimen came from a patient at a time of transient non-adherence to study drug(s). […] For non-responders, samples from week 16 (or 24) were tested. Drug adherence was determined from pill counts of returned study medications at each scheduled visit.
(§1) Drug Susceptibility Assays. Clinical isolates were subjected to phenotypic (PhenoSense™) and genotypic (GeneSeq™) analysis by Virologic, Inc. as described elsewhere.

[3] = test system: clinical isolates from patients on NFV regimens; details: isolates containing D30N as the only primary PI mutation; cited from earlier work
[4] = test system: recombinant HIV-1 viruses (NL4-3, RF, LAI) in MT-2 cells; test: MT-2 cell susceptibility assay of recombinant viruses; assay type: cell-based; details: all three viral strains, I50L or I50L/A71V introduced by site-directed mutagenesis
Protocol: Cells and Viruses. MT-2 cells, HIV-1 RF, HIV1-LAI, and the HIV-1 NL4-3 proviral clones were obtained through the AIDS Research and Reference Reagent Program, National Institutes of Health. MT-2 cells were cultured in RPMI 1640 medium supplemented with 10% fetal bovine serum, 2 mM L-glutamine, and 10 mM Hepes buffer. HIV-1 viruses were generated by transient transfection of the proviral DNA into Human Embryonic Kidney 293 cells using Lipofectamine reagents (Gibco BRL). The viruses were harvested 72 hr post-transfection, amplified in MT-2 cells, and titered in the same cells using a virus yield assay.
Recombinant HIV-1 Variants and Chimeric NL4-3 Proviral Clones. HIV-1 strains with defined substitutions in the protease gene were generated by QuikChange® site-directed mutagenesis as recommended by the manufacturer (Stratagene). Recombinant NL4-3 and LAI proviral clones containing the wild-type and mutant protease genes from RF and clinical isolates were constructed by replacing the SseI/ApaI fragment of pNL4-3 with the appropriate SseI/ApaI protease fragments.
Recombinant viruses (generated separately from those made for PhenoSense assays) were tested in an MT-2 cell susceptibility assay at Bristol Myers Squibb. MT-2 cells were infected with recombinant viruses at a multiplicity of infection (MOI) of 0.005 50% tissue culture infective doses (TCID50)/cell followed by incubation in the presence or absence of serially diluted protease inhibitors for 4 to 7 days. Virus yields were quantified using a RT assay as previously described. The results from at least four independent experiments were used to calculate the EC50.

[5] = test system: clinical isolates containing a D30N substitution; test: PhenoSense phenotypic susceptibility of clinical isolates containing D30N; assay type: cell-based, HIV-1; details: 75 D30N containing isolates, FIG. 3
Protocol: as §1
Comparative Studies of I50L and D30N Containing Viruses. […] Comparative studies were performed on the 18 phenotyped viruses containing an I50L and 75 clinical isolates containing a D30N substitution without evidence of cross-resistance (FC≧2.5) to other PIs.

[6] = test system: clinical isolates containing an I50V; test: PhenoSense phenotypic susceptibility of clinical isolates containing I50V; assay type: cell-based, HIV-1
From the text: as §1
Because an I50V substitution is a signature mutation sometimes associated with APV resistance, the cross-resistance relationship between ATV and APV was further examined.

SMILES: CC(C)c1nc(CN(C)C(=O)N[C@H](C(=O)N[C@@H](Cc2ccccc2)C[C@H](O)[C@H](Cc2ccccc2)NC(=O)OCc2cncs2)C(C)C)cs1 [RTV, ritonavir]
- effect of I50V on susceptibility [1]: reduced susceptibility
- Susceptibility, Fold Change in EC50 relative to reference strain ([2]; Subject 076, Week 80): 0.3 Fold Change
- Susceptibility, Fold Change in EC50 relative to reference strain ([2]; Subject 076, Week 92): 0.3 Fold Change
- Susceptibility, Fold Change in EC50 relative to reference strain ([2]; Subject 100, Week 1.7): 2.2 Fold Change
- Susceptibility, Fold Change in EC50 relative to reference strain ([2]; Subject 169, Week 0.1): 1.5 Fold Change
- Susceptibility, Fold Change in EC50 relative to reference strain ([2]; Subject 169, Week 90): 0.3 Fold Change
- Susceptibility, Fold Change in EC50 relative to reference strain ([2]; Subject 169, Week 102): 0.3 Fold Change
- Subceptibility, Fold Change in EC50 relative to reference strain [2]: 0.4 Fold Change
- Susceptibility, Fold Change in EC50 relative to reference strain ([2]; Subject 362, Week 0.1): 1.1 Fold Change
- Susceptibility, Fold Change in EC50 relative to reference strain ([2]; Subject 362, Week 108): 0.4 Fold Change
- percentage of baseline isolates exhibiting a FC≦0.4 [2]: 10%
- median increase in susceptibility from baseline [2]: 4.1 fold
- percentage of I50L isolates with susceptibility (FC) 0.4-fold or lower [2]: 83%
- median FC [2]: ≤ 0.4
- susceptibility [3]: remained susceptible
- change in susceptibility [4]: enhanced susceptibility

SMILES: CC(C)(C)NC(=O)[C@@H]1CN(Cc2cccnc2)CCN1C[C@@H](O)C[C@@H](Cc1ccccc1)C(=O)N[C@H]1c2ccccc2C[C@H]1O [IDV, indinavir]
- effect of I50V on susceptibility [1]: increased susceptibility
- Susceptibility, Fold Change in EC50 relative to reference strain ([2]; Subject 076, Week 80): 0.4 Fold Change
- Susceptibility, Fold Change in EC50 relative to reference strain ([2]; Subject 076, Week 92): 0.5 Fold Change
- Susceptibility, Fold Change in EC50 relative to reference strain ([2]; Subject 100, Week 1.7): 1.6 Fold Change
- Susceptibility, Fold Change in EC50 relative to reference strain ([2]; Subject 169, Week 0.1): 0.8 Fold Change
- Susceptibility, Fold Change in EC50 relative to reference strain ([2]; Subject 169, Week 90): 0.5 Fold Change
- Susceptibility, Fold Change in EC50 relative to reference strain ([2]; Subject 169, Week 102): 0.4 Fold Change
- Subceptibility, Fold Change in EC50 relative to reference strain [2]: 0.4 Fold Change
- Susceptibility, Fold Change in EC50 relative to reference strain ([2]; Subject 362, Week 0.1): 1.3 Fold Change
- Susceptibility, Fold Change in EC50 relative to reference strain ([2]; Subject 362, Week 108): 0.7 Fold Change
- percentage of baseline isolates exhibiting a FC≦0.4 [2]: 0%
- median increase in susceptibility from baseline [2]: 2.0 fold
- percentage of I50L isolates with susceptibility (FC) 0.4-fold or lower [2]: 58%
- median FC [2]: ≤ 0.4
- median FC [5]: small median decreases in susceptibility
- susceptibility [3]: remained susceptible
- change in susceptibility [4]: enhanced susceptibility

SMILES: Cc1cccc(C)c1OCC(=O)N[C@@H](Cc1ccccc1)[C@@H](O)C[C@H](Cc1ccccc1)NC(=O)[C@H](C(C)C)N1CCCNC1=O [LPV, lopinavir]
- effect of I50V on susceptibility [1]: reduced susceptibility
- Susceptibility, Fold Change in EC50 relative to reference strain ([2]; Subject 076, Week 80): 0.6 Fold Change
- Susceptibility, Fold Change in EC50 relative to reference strain ([2]; Subject 076, Week 92): 0.5 Fold Change
- percentage of baseline isolates exhibiting a FC≦0.4 [2]: 0%
- median increase in susceptibility from baseline [2]: 3.2 fold
- percentage of I50L isolates with susceptibility (FC) 0.4-fold or lower [2]: 100%
- median FC [2]: ≤ 0.4
- change in susceptibility [4]: enhanced susceptibility

SMILES: CC(C)(C)NC(=O)[C@@H]1C[C@@H]2CCCC[C@@H]2CN1C[C@@H](O)[C@H](Cc1ccccc1)NC(=O)[C@H](CC(N)=O)NC(=O)c1ccc2ccccc2n1 [SQV, saquinavir]
- effect of I50V on susceptibility [1]: increased susceptibility
- Susceptibility, Fold Change in EC50 relative to reference strain ([2]; Subject 076, Week 80): 0.3 Fold Change
- Susceptibility, Fold Change in EC50 relative to reference strain ([2]; Subject 076, Week 92): 0.5 Fold Change
- Susceptibility, Fold Change in EC50 relative to reference strain ([2]; Subject 100, Week 1.7): 1.3 Fold Change
- Susceptibility, Fold Change in EC50 relative to reference strain ([2]; Subject 169, Week 0.1): 0.8 Fold Change
- Susceptibility, Fold Change in EC50 relative to reference strain ([2]; Subject 169, Week 90): 0.5 Fold Change
- Susceptibility, Fold Change in EC50 relative to reference strain ([2]; Subject 169, Week 102): 0.4 Fold Change
- Subceptibility, Fold Change in EC50 relative to reference strain [2]: 0.5 Fold Change
- Susceptibility, Fold Change in EC50 relative to reference strain ([2]; Subject 362, Week 0.1): 1.0 Fold Change
- Susceptibility, Fold Change in EC50 relative to reference strain ([2]; Subject 362, Week 108): 0.5 Fold Change
- percentage of baseline isolates exhibiting a FC≦0.4 [2]: 10%
- median increase in susceptibility from baseline [2]: 2.0 fold
- percentage of I50L isolates with susceptibility (FC) 0.4-fold or lower [2]: 72%
- median FC [2]: ≤ 0.4
- susceptibility [3]: remained susceptible
- change in susceptibility [4]: enhanced susceptibility

SMILES: CC(C)CN(C[C@@H](O)[C@H](Cc1ccccc1)NC(=O)O[C@H]1CCOC1)S(=O)(=O)c1ccc(N)cc1 [APV, amprenavir]
- Susceptibility, Fold Change in EC50 relative to reference strain ([6]; Isolate with I50V 1): 3.5 Fold Change
- Susceptibility, Fold Change in EC50 relative to reference strain ([6]; Isolate with I50V 2): 4.2 Fold Change
- Susceptibility, Fold Change in EC50 relative to reference strain ([6]; Isolate with I50V 3): 8.0 Fold Change
- Susceptibility, Fold Change in EC50 relative to reference strain ([6]; Isolate with I50V 4): 9.4 Fold Change
- Susceptibility, Fold Change in EC50 relative to reference strain ([6]; Isolate with I50V 5): 11 Fold Change
- Susceptibility, Fold Change in EC50 relative to reference strain ([6]; Isolate with I50V 6): 11 Fold Change
- Susceptibility, Fold Change in EC50 relative to reference strain ([6]; Isolate with I50V 7): 12 Fold Change
- Susceptibility, Fold Change in EC50 relative to reference strain ([6]; Isolate with I50V 8): 14 Fold Change
- cross-resistance ([2]; I50L containing clinical isolates): none of the I50L containing clinical isolates showed evidence of APV resistance
- Susceptibility, Fold Change in EC50 relative to reference strain ([2]; Isolate with I50L 1): 0.3 Fold Change
- Susceptibility, Fold Change in EC50 relative to reference strain ([2]; Isolate with I50L 2): 0.6 Fold Change
- Susceptibility, Fold Change in EC50 relative to reference strain ([2]; Isolate with I50L 3): 0.5 Fold Change
- Susceptibility, Fold Change in EC50 relative to reference strain ([2]; Isolate with I50L 4): 0.4 Fold Change
- Susceptibility, Fold Change in EC50 relative to reference strain ([2]; Isolate with I50L 5): 0.6 Fold Change
- Susceptibility, Fold Change in EC50 relative to reference strain ([2]; Isolate with I50L 6): 0.4 Fold Change
- Susceptibility, Fold Change in EC50 relative to reference strain ([2]; Isolate with I50L 7): 0.6 Fold Change
- Susceptibility, Fold Change in EC50 relative to reference strain ([2]; Isolate with I50L 8): 0.8 Fold Change
- Susceptibility, Fold Change in EC50 relative to reference strain ([2]; Isolate with I50L 9): 0.6 Fold Change
- Susceptibility, Fold Change in EC50 relative to reference strain ([2]; Isolate with I50L 10): 0.3 Fold Change
- Susceptibility, Fold Change in EC50 relative to reference strain ([2]; Isolate with I50L 11): 0.4 Fold Change
- Susceptibility, Fold Change in EC50 relative to reference strain ([2]; Isolate with I50L 12): 0.7 Fold Change
- Susceptibility, Fold Change in EC50 relative to reference strain ([2]; Isolate with I50L 13): 0.7 Fold Change
- Susceptibility, Fold Change in EC50 relative to reference strain ([2]; Isolate with I50L 14): 0.8 Fold Change
- Susceptibility, Fold Change in EC50 relative to reference strain ([2]; Isolate with I50L 15): 0.9 Fold Change
- Susceptibility, Fold Change in EC50 relative to reference strain ([2]; Isolate with I50L 16): 0.4 Fold Change
- Susceptibility, Fold Change in EC50 relative to reference strain ([2]; Subject 076, Week 80): 0.6 Fold Change
- Susceptibility, Fold Change in EC50 relative to reference strain ([2]; Subject 076, Week 92): 0.9 Fold Change
- Susceptibility, Fold Change in EC50 relative to reference strain ([2]; Subject 100, Week 1.7): 1.5 Fold Change
- Susceptibility, Fold Change in EC50 relative to reference strain ([2]; Subject 169, Week 0.1): 0.6 Fold Change
- Susceptibility, Fold Change in EC50 relative to reference strain ([2]; Subject 169, Week 90): 0.7 Fold Change
- Susceptibility, Fold Change in EC50 relative to reference strain ([2]; Subject 169, Week 102): 0.6 Fold Change
- Subceptibility, Fold Change in EC50 relative to reference strain [2]: 1.2 Fold Change
- Susceptibility, Fold Change in EC50 relative to reference strain ([2]; Subject 362, Week 0.1): 1.0 Fold Change
- Susceptibility, Fold Change in EC50 relative to reference strain ([2]; Subject 362, Week 108): 1.1 Fold Change
- percentage of baseline isolates exhibiting a FC≦0.4 [2]: 21%
- median increase in susceptibility from baseline [2]: 1.5 fold
- percentage of I50L isolates with susceptibility (FC) 0.4-fold or lower [2]: 39%
- median FC [5]: 0.6
- susceptibility [3]: remained susceptible
- change in susceptibility [4]: enhanced susceptibility
